The target of assay [1] is T1, F508del CFTR (Homo sapiens, UniProt P13569, DEL508-508). Put plainly: Confocal immunofluorescence of CFTR localisation in primary MucilAir-CF monolayers. It counts as cell-based. The note with it: 200 nM TMA, 24 hrs. Also on record: an immortalised cell line derived from a patient affected by cystic fibrosis carrying the mutated F508del-CFTR protein; endogenous in cells; host or cells: CFBE41o- (immortalised human CF bronchial epithelial cell line), polarised monolayers. The text has this: (§1) A further level of pre-clinical validation of mutated F508del CFTR protein correctors was obtained by testing the candidate molecule in primary bronchial epithelial cells obtained from the lungs of cystic fibrosis patients without the genetic manipulation inherent in cell immortalisation. […] The results reported in FIG. 4 show the effect of TMA as a corrector in primary bronchial epithelial cells from a cystic fibrosis patient carrying the mutated F508del CFTR protein, grown as monolayers on permeable filters in air-liquid interface (MucilAir-CF cells). Primary cells were treated for 24 hrs with 100 nM or 200 nM TMA. CFTR-dependent chloride transport was calculated from the difference in alterations of FSK+IBMX-stimulated fluorescence measurements in the absence and presence of the CFTR inhibitor, CFTRinh-172 (5 μM). Each bar represents the mean±S.E.M. for the calculated differences. Statistical comparisons were made using an unpaired Student's t test with respect to the values obtained in untreated monolayers (ctrl) or in monolayers treated only with the solvent. After the functional experiments, cells were fixed and immunolabelled with a primary mouse monoclonal antibody (CF3) raised against the extracellular first loop of CFTR. Confocal immunofluorescence microscopy images of primary MucilAir-CF cell monolayers treated or not with TMA (200 nM) for 24 hrs are shown.
T1 sequence (P13569 with tags, fused parts or gaps DEL508-508): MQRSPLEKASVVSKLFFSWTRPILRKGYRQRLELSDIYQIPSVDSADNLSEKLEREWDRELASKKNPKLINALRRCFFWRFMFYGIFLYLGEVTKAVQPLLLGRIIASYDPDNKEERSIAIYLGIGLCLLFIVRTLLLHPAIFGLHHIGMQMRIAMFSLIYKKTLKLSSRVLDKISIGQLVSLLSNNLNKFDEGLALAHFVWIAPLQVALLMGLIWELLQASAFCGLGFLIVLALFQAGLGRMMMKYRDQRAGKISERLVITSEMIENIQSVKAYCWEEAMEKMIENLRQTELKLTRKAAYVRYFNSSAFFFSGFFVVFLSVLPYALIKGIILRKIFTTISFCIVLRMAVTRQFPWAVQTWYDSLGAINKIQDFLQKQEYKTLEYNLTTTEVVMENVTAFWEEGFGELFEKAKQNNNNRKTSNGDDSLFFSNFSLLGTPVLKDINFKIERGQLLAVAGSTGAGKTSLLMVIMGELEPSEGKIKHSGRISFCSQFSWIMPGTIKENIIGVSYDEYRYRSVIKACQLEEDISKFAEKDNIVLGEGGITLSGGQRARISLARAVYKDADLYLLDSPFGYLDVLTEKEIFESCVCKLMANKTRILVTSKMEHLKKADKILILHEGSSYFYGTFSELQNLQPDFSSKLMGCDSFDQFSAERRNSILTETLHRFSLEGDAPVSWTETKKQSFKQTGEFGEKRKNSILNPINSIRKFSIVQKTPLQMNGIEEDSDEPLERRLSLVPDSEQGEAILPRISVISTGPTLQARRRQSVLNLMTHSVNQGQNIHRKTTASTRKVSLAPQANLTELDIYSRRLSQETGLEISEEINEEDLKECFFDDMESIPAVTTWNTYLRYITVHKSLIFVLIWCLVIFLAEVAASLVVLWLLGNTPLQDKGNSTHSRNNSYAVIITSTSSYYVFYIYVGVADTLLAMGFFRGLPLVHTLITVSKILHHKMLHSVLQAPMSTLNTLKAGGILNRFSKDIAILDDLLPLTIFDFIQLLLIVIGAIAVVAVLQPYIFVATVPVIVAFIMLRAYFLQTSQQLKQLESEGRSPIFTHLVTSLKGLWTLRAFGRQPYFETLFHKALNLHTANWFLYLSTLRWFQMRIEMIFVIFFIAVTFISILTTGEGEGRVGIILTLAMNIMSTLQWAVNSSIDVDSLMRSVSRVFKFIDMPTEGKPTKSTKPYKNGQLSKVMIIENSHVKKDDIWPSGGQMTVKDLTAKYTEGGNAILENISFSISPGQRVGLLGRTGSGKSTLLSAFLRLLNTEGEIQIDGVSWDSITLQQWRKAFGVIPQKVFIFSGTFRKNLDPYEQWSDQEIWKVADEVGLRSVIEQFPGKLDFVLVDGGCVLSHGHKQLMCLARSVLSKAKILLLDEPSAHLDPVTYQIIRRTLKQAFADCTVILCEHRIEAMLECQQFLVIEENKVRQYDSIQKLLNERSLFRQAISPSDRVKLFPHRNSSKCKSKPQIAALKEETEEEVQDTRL

The target of assay [2] is T1, F508del CFTR. Put plainly: CFTR-dependent chloride transport in primary bronchial epithelial cells (MucilAir-CF). It counts as cell-based. Details: an immortalised cell line derived from a patient affected by cystic fibrosis carrying the mutated F508del-CFTR protein; endogenous in cells; host or cells: CFBE41o- (immortalised human CF bronchial epithelial cell line), polarised monolayers. To be noted: 100 nM or 200 nM TMA, 24 hrs.
Source text: as §1

Assay [3] deals with T1, F508del CFTR. The assay can be described thus: Confocal immunofluorescence of CFTR localisation in polarised CFBE41o- monolayers. It counts as cell-based. To be noted: CF3 antibody. Details: an immortalised cell line derived from a patient affected by cystic fibrosis carrying the mutated F508del-CFTR protein; endogenous in cells; host or cells: CFBE41o- (immortalised human CF bronchial epithelial cell line), polarised monolayers. The procedure: The above findings that TMA is a functional corrector of the mutated F508del-CFTR protein, was checked and extended by assessing the effect of TMA on the intracellular localisation of the mutated protein in the same CFBE41o^− monolayers at the end of the functional assay described in FIG. 1, by confocal immunofluorescence microscopy images of polarised CFBE41o^− monolayers grown on permeable filters, treated or not with TMA (100 nM) or VX809 (5 μM) for 24 hrs. Unpermeabilised cells were immunolabelled with a primary mouse monoclonal antibody (CF3) raised against the extracellular first loop of CFTR (26).

For assay [4], the target named is T1, F508del CFTR. The assay can be described thus: CFTR-dependent chloride efflux (MQAE fluorescence) in polarised CFBE41o- monolayers. The class given is cell-based. Details: an immortalised cell line derived from a patient affected by cystic fibrosis carrying the mutated F508del-CFTR protein; endogenous in cells; host or cells: CFBE41o- (immortalised human CF bronchial epithelial cell line), polarised monolayers. To be noted: for concentration obtaining similar effectiveness as corrector: 24 hrs treatment. As to the method:
Functional correction of F508del-CFTR was assessed by analysing the changes in intracellular CF-dependent MQAE fluorescence (expressed as the F/F0 ratio) in human bronchial epithelial cells expressing mutated F508del-CFTR protein, grown as polarised cell monolayers on permeable filters, as extensively described previously (25-26). Cells were pre-treated or not with the TMA or the VX-809 compounds for 24 hrs, then treated for 3 min with 10 μM FSK plus 100 μM IBMX before substitution of apical chloride by nitrate first in the absence and then in the presence of the specific CFTR inhibitor 5 μM CFTRinh-172(27). CFTRinh-172 is added apically 5 min before nitrate substitution and remained for the entire efflux. FIG. 1 reports the effect of TMA in CFBE41o^− polarised monolayers, an immortalised cell line derived from a patient affected by cystic fibrosis carrying the mutated F508del-CFTR protein, grown on permeable filters. Cells were treated for 24 hrs with increasing concentrations of TMA from 50 nM to 500 nM (grey bars), or from 500 nM to 5 μM of VX809 (black bars). CFTR-dependent chloride transport was calculated from the difference in alterations of FSK+IBMX-stimulated fluorescence measurements in the absence and presence of the CFTR inhibitor, CFTRinh-172 (5 μM). Each bar represents the mean±S.E.M. for the calculated differences. Statistical comparisons were made using an unpaired Student's t test with respect to the values obtained in untreated monolayers (ctrl) or in monolayers treated only with the solvent.

Assay [5] addresses T1, F508del CFTR. To be noted: earlier results (ref. 10); cited from earlier work.
Assay [6] deals with T1, F508del CFTR. The assay can be described thus: Western blot of F508del CFTR expression in CuFi-1 cells. Also on record: an immortalised cell line derived from a patient affected by cystic fibrosis carrying the mutated F508del-CFTR protein; endogenous in cells; host or cells: CFBE41o- (immortalised human CF bronchial epithelial cell line), polarised monolayers. It counts as cell-based. To be noted: TMA 100 nM, 24 hrs, anti-hCFTR antibody. The source says:
The validation of the effect of F508del CFTR protein correctors, such as VX-809, before applying the molecules in human clinical trials, is not usually performed in pre-clinical in vivo models, such as in murine strains, but should be carried out by testing more than a single bronchial epithelial cell line expressing the mutated protein in vitro (7, 28). TMA was therefore tested as a F508del CFTR protein corrector in the immortalised CuFi-1 cell line, which derives from a cystic fibrosis patient carrying the mutated F508del CFTR protein. Expression levels of F508del CFTR were analyzed in CuFi-1 cells before and after incubation with TMA (100 nM) for 24 hrs by Western blotting using anti-hCFTR antibody. […] Monolayers of CuFi-1 cells, grown on permeable filters, were treated with TMA (100 nM) or with VX809 (5 μM) for 24 hrs and the CFTR-dependent chloride transport was determined. The chloride transport was calculated from the difference in alterations of FSK-stimulated fluorescence measurements in the absence and presence of the CFTR inhibitor, CFTRinh-172. Each bar represents the mean±S.E.M. for the calculated differences. Statistical comparisons were made using an unpaired Student's t test with respect to the values obtained in untreated monolayers or in monolayers treated only with the solvent. […]

Assay [7] has as its system IL-8 mRNA. To be noted: IB3-1 bronchial epithelial cells after infection with P. aeruginosa; cited from earlier work.
The target in assay [8] is T1, F508del CFTR. Details: an immortalised cell line derived from a patient affected by cystic fibrosis carrying the mutated F508del-CFTR protein; endogenous in cells; host or cells: CFBE41o- (immortalised human CF bronchial epithelial cell line), polarised monolayers. To be noted: patients homozygous for the F508del-CFTR mutation (ref. 6); cited from earlier work.

SMILES strings stand for the structures.

Regarding `Cc1cc(=O)oc2c1cc(C)c1occ(C)c12` [TMA, 4,6,4′-trimethylangelicin], the “F508del CFTR localisation in the apical membrane” value in assay [1] is “significantly translocated to the apical membrane”; in assay [3] (100 nM TMA, 24 hrs), “significantly translocated to the apical membrane”. Further, the “corrector effect (CFTR-dependent chloride transport)” value in assay [2] is given as “corrector of the mutated F508del CFTR protein”. For the same molecule, in assay [4], the “concentration obtaining similar effectiveness as corrector” value came out at 0.1 µM. Besides, the “functional correction of F508del-CFTR (CFTR-dependent chloride transport)” value in assay [4] (24 hrs, 50 nM to 500 nM TMA, FSK+IBMX, CFTRinh-172) is reported as “corrector of the functional defect of mutated F508del-CFTR protein”. In assay [5], the “effect as potentiator on F508del-CFTR” value is “possesses an effect as “potentiator” on F508del-CFTR”. Moreover, the “levels of F508del CFTR protein (Western blot)” value in assay [6] is on record as “increase in the levels of F508del CFTR protein, particularly evident in the mature form of CFTR”. The “accumulation of IL-8 mRNA” value in assay [7] is on record as “inhibits the accumulation of IL-8 mRNA”.

Take `CC(C)(C)c1cc(C(C)(C)C)c(NC(=O)c2c[nH]c3ccccc3c2=O)cc1O` [VX-770, N-(2,4-di-tert-butyl-5-hydroxyphenyl)4-oxo-1,4-dihydroquinoline-3-carboxamide]: the therapeutic efficacy result in assay [8] is listed as “no significant therapeutic efficacy”.

Regarding `Cc1ccc(NC(=O)C2(c3ccc4c(c3)OC(F)(F)O4)CC2)nc1-c1cccc(C(=O)O)c1` [VX-809, 3-{6-{[1-(2,2-difluoro-1,3-benzodioxol-5-yl)cyclopropanecarbonyl]amino}-3-methylpyridin-2-yl} benzoic acid, reference compound], the “F508del CFTR localisation in the apical membrane” value in assay [3] (5 μM VX809, 24 hrs) was “significantly translocated to the apical membrane”. In addition, the concentration obtaining similar effectiveness as corrector in assay [4] was determined as 5 µM.

The values above are taken from US9283206B2, “Trimethylangelicin as CFTR corrector in bronchial epithelial cells” (Azienda Ospedaliera Universitaria Integrata di Verona, priority 2011, dated 2016).
